{"source": "patent US20260033761A1", "about": "“CHARACTERISATION OF NEUROLOGICAL DYSFUNCTION” (Hoffmann-La Roche Inc., priority 2022, published 2026)", "key": {"GABA-A receptors": {"tested_on": "GABA-A receptors", "details": "Visser et al., 2003; cited from earlier work"}, "GABA-A α5 receptors": {"target": "T1, GABA-A α5 receptors (Rattus norvegicus, UniProt P18508+P19969)", "T1 construct": "host or cells: Wistar rats in vivo (valproic acid model)", "T1 sequence (P19969 32-464 limits assumed)": "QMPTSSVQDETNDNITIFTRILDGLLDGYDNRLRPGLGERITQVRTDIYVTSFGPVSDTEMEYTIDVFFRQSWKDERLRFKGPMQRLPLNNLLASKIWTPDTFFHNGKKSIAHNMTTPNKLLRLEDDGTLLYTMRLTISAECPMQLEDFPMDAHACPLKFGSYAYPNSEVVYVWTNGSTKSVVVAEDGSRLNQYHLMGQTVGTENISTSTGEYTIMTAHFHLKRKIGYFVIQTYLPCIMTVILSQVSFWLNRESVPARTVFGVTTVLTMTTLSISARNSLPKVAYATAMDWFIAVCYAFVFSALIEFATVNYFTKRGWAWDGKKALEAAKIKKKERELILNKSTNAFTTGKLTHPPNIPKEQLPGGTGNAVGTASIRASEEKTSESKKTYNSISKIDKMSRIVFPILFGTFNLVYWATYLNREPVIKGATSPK", "T1 sequence (P63079 26-473 partner)": "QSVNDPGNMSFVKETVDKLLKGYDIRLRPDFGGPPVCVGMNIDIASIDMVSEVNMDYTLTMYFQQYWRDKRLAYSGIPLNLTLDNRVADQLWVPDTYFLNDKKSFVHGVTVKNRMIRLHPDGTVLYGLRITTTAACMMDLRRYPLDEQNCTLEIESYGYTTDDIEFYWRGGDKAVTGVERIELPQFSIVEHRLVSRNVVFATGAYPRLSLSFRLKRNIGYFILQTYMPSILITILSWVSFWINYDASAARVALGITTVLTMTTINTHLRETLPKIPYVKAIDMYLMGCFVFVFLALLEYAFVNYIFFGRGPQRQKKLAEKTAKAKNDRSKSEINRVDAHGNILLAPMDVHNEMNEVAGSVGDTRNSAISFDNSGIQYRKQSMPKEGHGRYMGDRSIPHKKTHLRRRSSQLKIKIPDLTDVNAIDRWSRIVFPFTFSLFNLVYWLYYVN", "T1 sequence (P18508 39-466)": "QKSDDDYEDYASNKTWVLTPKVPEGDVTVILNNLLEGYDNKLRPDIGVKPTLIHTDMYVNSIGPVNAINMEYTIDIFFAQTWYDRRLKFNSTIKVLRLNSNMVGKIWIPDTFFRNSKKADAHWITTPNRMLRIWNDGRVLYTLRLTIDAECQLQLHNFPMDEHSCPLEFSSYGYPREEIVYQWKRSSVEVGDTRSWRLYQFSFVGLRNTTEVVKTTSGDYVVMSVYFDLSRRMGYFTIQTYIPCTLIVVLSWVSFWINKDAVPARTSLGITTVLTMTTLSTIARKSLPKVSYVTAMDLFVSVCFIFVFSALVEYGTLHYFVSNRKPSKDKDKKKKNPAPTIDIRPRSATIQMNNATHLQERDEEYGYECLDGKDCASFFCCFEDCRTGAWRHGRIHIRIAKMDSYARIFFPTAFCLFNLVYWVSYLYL", "details": "Wistar rats prenatally exposed to valproic acid; cited from earlier work"}, "GABA-A α5 [1]": {"target": "T2, GABA-A α5 (Homo sapiens, UniProt P18507+P31644)", "T2 sequence (P31644 32-462)": "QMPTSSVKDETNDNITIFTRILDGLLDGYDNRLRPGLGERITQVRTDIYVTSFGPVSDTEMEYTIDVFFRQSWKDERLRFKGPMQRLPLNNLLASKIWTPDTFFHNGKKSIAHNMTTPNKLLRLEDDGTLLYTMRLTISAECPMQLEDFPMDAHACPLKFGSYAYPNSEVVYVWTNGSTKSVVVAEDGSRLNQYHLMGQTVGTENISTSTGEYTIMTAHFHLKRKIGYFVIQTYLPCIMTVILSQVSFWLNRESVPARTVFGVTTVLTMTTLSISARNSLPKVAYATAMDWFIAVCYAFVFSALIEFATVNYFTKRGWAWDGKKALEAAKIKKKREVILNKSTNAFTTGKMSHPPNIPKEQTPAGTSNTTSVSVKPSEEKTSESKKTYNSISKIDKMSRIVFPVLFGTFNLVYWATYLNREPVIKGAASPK", "T2 sequence (P28472 26-473 partner)": "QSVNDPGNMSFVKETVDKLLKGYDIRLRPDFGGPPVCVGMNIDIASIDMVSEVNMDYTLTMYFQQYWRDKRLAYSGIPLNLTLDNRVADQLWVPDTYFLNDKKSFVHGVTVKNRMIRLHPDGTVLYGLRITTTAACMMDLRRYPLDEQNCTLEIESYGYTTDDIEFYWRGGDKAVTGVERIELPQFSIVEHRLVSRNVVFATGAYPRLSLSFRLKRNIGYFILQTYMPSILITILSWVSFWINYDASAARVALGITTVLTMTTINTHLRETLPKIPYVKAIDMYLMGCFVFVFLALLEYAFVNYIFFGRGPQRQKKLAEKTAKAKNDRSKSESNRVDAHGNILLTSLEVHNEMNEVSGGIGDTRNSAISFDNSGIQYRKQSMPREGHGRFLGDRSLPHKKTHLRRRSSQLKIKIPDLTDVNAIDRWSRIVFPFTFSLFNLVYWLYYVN", "T2 sequence (P18507 40-467 limits assumed)": "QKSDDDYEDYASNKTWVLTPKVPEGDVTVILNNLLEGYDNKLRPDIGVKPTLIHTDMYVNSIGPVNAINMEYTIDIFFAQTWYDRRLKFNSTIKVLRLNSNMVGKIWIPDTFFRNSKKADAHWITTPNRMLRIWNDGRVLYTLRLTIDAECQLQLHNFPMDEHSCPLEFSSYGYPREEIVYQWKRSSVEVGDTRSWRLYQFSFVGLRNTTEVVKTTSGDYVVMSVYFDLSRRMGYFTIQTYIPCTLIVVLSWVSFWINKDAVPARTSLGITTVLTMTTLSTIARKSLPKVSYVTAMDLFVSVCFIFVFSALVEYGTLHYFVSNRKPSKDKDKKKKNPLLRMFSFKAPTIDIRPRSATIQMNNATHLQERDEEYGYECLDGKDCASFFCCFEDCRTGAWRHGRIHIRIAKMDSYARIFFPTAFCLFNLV", "design": "host or cells: brain of healthy volunteers (and individuals with Down syndrome), in vivo EEG", "details": "cited from earlier work"}, "GABA-A α5 [2]": {"target": "T2, GABA-A α5", "assay": "Resting state EEG, Phase 1 SAD/MAD study BP40091 (alogabat vs placebo)", "assay_type": "in vivo, human (adult healthy volunteers)", "design": "endogenous in cells; host or cells: brain of adult healthy volunteers, in vivo (resting-state EEG)", "text": "Extracting beta band oscillations. […] Here this approach is applied to isolate beta-band oscillations from EEG signals (FIGS. 4,5). This approach entails the estimation of the “background activity” in the frequency range of interest, which is non-oscillatory and/or composed of many oscillatory signals at different neighboring frequencies and therefore appears non-oscillatory. In a first implementation referred to as “locally referenced power”, the “background activity” for a given frequency range of interest (here beta frequency range defined as 16-32 Hz) is estimated by interpolation from power at lower and higher neighboring frequencies, referred to herein as “reference supports” (in this example, reference support points of 12 and 40 Hz are used). Note that in cases where a peak in the alpha band is expected (e.g. a peak around 10 Hz), reference support points that are closer to the beta frequency range on the lower end of the scale may be used, such as e.g. any point between 12 and 16 Hz). The estimated “background activity” is then “removed” (i.e. excluded, such as subtracted) from the power in the frequency range of interest or a power spectral density value at a specific frequency within this frequency range (e.g. the peak frequency, or a predetermined frequency, such as e.g. a frequency identified as the group level peak in a population, e.g. 23 Hz in the present case). The resulting estimate should thereby provide a more specific measure of the oscillatory physiological process under investigation (here GABAA-related beta-band oscillations).\nMore specifically, the “background power spectral density” at a given frequency may be derived by linear interpolation of logarithmically transformed power and frequencies (see FIG. 4B). The power signal in spectral analysis is typically log transformed by default. […] The “background power” is then estimated as the integral of this “background power spectral density” over the beta frequency range (here defined as 16-32 Hz). In other words, the “background signal” is the area under a straight line extending between the value of the spectrum at each of the support points (“background signal line”), between 16 and 32 Hz. The “locally referenced beta power” is then defined as the logarithm of the ratio between the beta power defined as the integral over the beta frequency range and the estimate of the “background power” (which is equivalent to the logarithm of the beta power defined as the integral over the beta frequency range, minus the logarithm of the estimate of the “background power”, or the area under the power curve in log scale, in the beta frequency range, minus the area under the background signal line in log scale, in the beta frequency range). Note that this metric will be negative when there is a deficit in the signal in this range compared to background.\nIn a third implementation, an approach using a global fit of the power spectrum composed of a superposition of oscillatory signals and a 1/f^α component was used to estimate the background signal. The 1/f^α component of the fit (estimated as described in Donoghue et al., 2020, see FIG. 4C—note that only step (a) of the method described in Donoghue et al. is used herein, where an aperiodic component is estimated, see FIG. 2a of Donoghue et al.) was used as the estimate of the background power spectral density. Analogously to the above, in a first embodiment of this third implementation, the extracted “1 over f referenced beta power” was used to estimate the background signal, and in a second embodiment the extracted “1 over f referenced beta peak power” was used to estimate the background signal. […]"}, "[3]": {"details": "selective doses 25-100 mg, parallel group, no pre-treatment baseline"}}, "note": "Entries after “also recorded” stand apart in the source; their conditions may differ. Read-outs that look alike come from different tables or passages of the source.", "data": [{"smiles": "CN1Cc2c(C(=O)OC(C)(C)C)ncn2-c2ccsc2C1=O", "note": "[Ro 19-4603]", "values": [{"measurement": "EEG beta-band power, non-selective GABA-A NAMs", "setting": "GABA-A receptors", "result": "decrease beta-band power"}]}, {"smiles": "C#Cc1ccc2c(c1)C(c1ccccc1F)=N[C@H](C)c1c(C(=O)NC)ncn1-2", "note": "[MP-III-022]", "values": [{"measurement": "Impairments in social, repetitive and restrictive behavioural domains", "setting": "GABA-A α5 receptors", "result": "prevented impairments in many parameters"}]}, {"smiles": "Cc1onc(-c2ccc(F)cc2)c1COc1ccc(C(=O)N2CCS(=O)(=O)CC2)cn1", "note": "[basmisanil]", "values": [{"measurement": "EEG beta-band power", "setting": "GABA-A α5 [1]; healthy volunteers and individuals with down-syndrome, Goeldner et al., 2022, Hipp et al., 2021", "result": "decrease in beta-band power"}, {"measurement": "EEG beta-band power", "setting": "GABA-A α5 [1]; healthy volunteers, Hipp et al., 2021, FIG. 6", "result": "decrease EEG beta-band power"}]}, {"smiles": "CCc1c(C(=O)OC)ncc2[nH]c3cc(OC)c(OC)cc3c12", "note": "[DMCM]", "values": [{"measurement": "EEG beta-band power, non-selective GABA-A NAMs", "setting": "GABA-A receptors", "result": "decrease beta-band power"}]}, {"smiles": "Cc1ccc(-c2noc(C)c2COc2ccc(C(=O)NC3CCOCC3)nn2)cn1", "note": "[alogabat]", "values": [{"measurement": "Dose range that exhibits the full PD response (within GABA-A a5 receptor selective dose range)", "setting": "GABA-A α5 [2]; EEG beta-band power change from baseline across dose levels", "result": "25 to 100", "unit": "mg"}, {"measurement": "Effect size (ES) placebo vs treated group, locally referenced beta power", "setting": "GABA-A α5 [2]; both variants (FIG. 4B interpolation, FIG. 4C 1/f fit), selective doses 25-100 mg, parallel group, no pre-treatment baseline, p<0.007", "result": "~0.7"}, {"measurement": "Frequency specificity of the pharmacodynamic EEG effect", "setting": "GABA-A α5 [2]; change in power spectrum, 25-100 mg vs placebo, relative to pre-treatment baseline", "result": "specific to the beta-band"}, {"measurement": "Change from baseline in EEG beta-band power (12-30 Hz)", "setting": "GABA-A α5 [2]; relative to pre-dose baseline, compared to placebo, about 180 min after dosing", "result": "increases EEG beta-band power; also recorded: strong and consistent increase in beta-band power"}, {"measurement": "Effect size (ES) placebo vs treated group, relative beta power", "setting": "GABA-A α5 [2]; [3]", "result": 0.62}, {"measurement": "Separation of placebo and treated group by absolute beta power", "setting": "GABA-A α5 [2]; [3]", "result": "not able to discriminate between the alogabat and the placebo group; also recorded: does not allow separating groups"}]}]}
